Experimental data from publication PMC12583704 (Signal Transduction and Targeted Therapy, 2025).
Values joined by “and” are separate entries in the source; they are usually repeats but may differ in a detail not shown here. Identical values can stand only once.

Experiment: Phase 1 study NCT03594422: adverse events graded by NCI CTCAE v4.03
Format: in vivo, human
Description: Part 1 was a dose-escalation study to determine the recommended phase 2 dose (RP2D) in solid tumors. […] The initial design was a 3 + 3 dose escalation from 20 mg, but the protocol was amended to randomly enroll and assign patients to starting doses of 30, 40, and 50 mg on the basis of safety data acquired in the CML trial.[20] […] An interactive web response system was used for randomization. Part 2 was a nonrandomized study focusing on patients with SDH-deficient GISTs. […] On the basis of preliminary data from adult patients, adolescent patients with advanced wild-type GISTs were also included in Part 2. The dosage for adolescents was adjusted according to their body weights.
AEs were evaluated at each follow-up visit: on Days 1, 8, 15, and 22 during Cycles 1 and 2; and on Days 1 and 15 in Cycle 3 and all subsequent cycles, up to 30 days after the final dose. All AEs were graded according to the National Cancer Institute Common Terminology Criteria for Adverse Events v4.03. Clinical laboratory investigations for routine blood examinations and serum chemistry parameters were performed during every cycle (on Day 1), during Cycles 1 and 2 (on Days 8, 15, and 22), and 30 days after the last dose of treatment. Urinalysis, coagulation, cardiac troponin I/T, lipase, amylase, and electrocardiographic evaluations were conducted at baseline; during Cycles 1 and 2 (on Days 1 and 15); during Cycles 3, 5, 7, and 9; every three cycles after Cycle 9 (on Day 1); and 14 days after the last dose of treatment. All patients underwent tumor imaging for response assessment via computed tomography or magnetic resonance imaging at screening and every two cycles (8 weeks) until progression or discontinuation. Target and nontarget lesions were assessed per the Response Evaluation Criteria in Solid Tumors version 1.1 (RECIST v1.1).

Cc1ccc(C(=O)Nc2ccc(CN3CCN(C)CC3)c(C(F)(F)F)c2)cc1C#Cc1cnc2[nH]ncc2c1 [Olverembatinib, 3-[(1H-pyrazolo[3,4-b]pyridin-5-yl)ethynyl]-4-methyl-N-{4-[(4-methylpiperazin-1-yl)methyl]-3-(trifluoromethyl)phenyl]benzamide]
TRAE: Hypoalbuminemia (50 mg (n = 16), Grade 3-5): 0 n (%) | TRAE: Leukocyte count increased (50 mg (n = 16), Grade 3-5): 0 n (%) | TRAE: Melanocytic nevus (50 mg (n = 16), Grade 3-5): 0 n (%) | TRAE: Neutrophil count increased (50 mg (n = 16), Grade 3-5): 0 n (%) | TRAE: Platelet count increased (50 mg (n = 16), Grade 3-5): 0 n (%) | TRAE: Pyrexia (50 mg (n = 16), Grade 3-5): 0 n (%) | TEAE: Abdominal pain (Total (n = 66), Any grade): 15 (22.7) n (%) | TEAE: Alanine aminotransferase increased (Total (n = 66), Any grade): 25 [37.9%] n (%) and 25 (37.9) n (%) | TEAE: Anemia (Total (n = 66), Any grade): 31 [47.0%] n (%) and 31 (47.0) n (%) | TEAE: Aspartate aminotransferase increased (Total (n = 66), Any grade): 31 [47%] n (%) and 31 (47.0) n (%) | TEAE: C-reactive protein increased (Total (n = 66), Any grade): 15 (22.7) n (%) | TEAE: Constipation (Total (n = 66), Any grade): 27 [40.9%] n (%) and 27 (40.9) n (%) | TEAE: Fatigue (Total (n = 66), Any grade): 20 [30.3%] n (%) and 20 (30.3) n (%) | TEAE: Hyperuricemia (Total (n = 66), Any grade): 31 (47.0) n (%) | TEAE: Hypoalbuminemia (Total (n = 66), Any grade): 14 (21.2) n (%) | TEAE: Leukocyte count increased (Total (n = 66), Any grade): 32 [48.5%] n (%) and 32 (48.5) n (%) | TEAE: Melanocytic nevus (Total (n = 66), Any grade): 17 (25.8) n (%) | TEAE: Neutrophil count increased (Total (n = 66), Any grade): 25 [37.9%] n (%) and 25 (37.9) n (%) | TEAE: Pyrexia (Total (n = 66), Any grade): 28 [42.4%] n (%) and 28 (42.4) n (%) | TEAEs (Total (n = 66), Any grade): 66 (100.0%) n (%) and 66 (100.0) n (%) | TRAE: ALT increased (Total (n = 66), Any grade): 20 (30.3) n (%) | TRAE: AST increased (Total (n = 66), Any grade): 23 (34.8) n (%) | TRAE: Anemia (Total (n = 66), Any grade): 9 (13.6) n (%) | TRAE: Blood creatinine increased (Total (n = 66), Any grade): 9 (13.6) n (%) | TRAE: Constipation (Total (n = 66), Any grade): 23 (34.8) n (%) | TRAE: Fatigue (Total (n = 66), Any grade): 18 (27.3) n (%) | TRAE: Hypoalbuminemia (Total (n = 66), Any grade): 10 (15.2) n (%) | TRAE: Leukocyte count increased (Total (n = 66), Any grade): 27 (40.9) n (%) | TRAE: Melanocytic nevus (Total (n = 66), Any grade): 15 (22.7) n (%) | TRAE: Neutrophil count increased (Total (n = 66), Any grade): 22 (33.3) n (%) | TRAE: Platelet count increased (Total (n = 66), Any grade): 7 (10.6) n (%) | TRAE: Pyrexia (Total (n = 66), Any grade): 19 (28.8) n (%) | TEAE: Abdominal pain (Total (n = 66), Grade 3-5): 1 (1.5) n (%) | TEAE: Alanine aminotransferase increased (Total (n = 66), Grade 3-5): 2 (3.0) n (%) | TEAE: Anemia (Total (n = 66), Grade 3-5): 4 (6.1) n (%) | TEAE: Aspartate aminotransferase increased (Total (n = 66), Grade 3-5): 2 (3.0) n (%) | TEAE: C-reactive protein increased (Total (n = 66), Grade 3-5): 0 n (%) | TEAE: Constipation (Total (n = 66), Grade 3-5): 0 n (%) | TEAE: Fatigue (Total (n = 66), Grade 3-5): 1 (1.5) n (%) | TEAE: Hyperuricemia (Total (n = 66), Grade 3-5): 1 (1.5) n (%) | TEAE: Hypoalbuminemia (Total (n = 66), Grade 3-5): 0 n (%) | TEAE: Leukocyte count increased (Total (n = 66), Grade 3-5): 0 n (%) | TEAE: Melanocytic nevus (Total (n = 66), Grade 3-5): 0 n (%) | TEAE: Neutrophil count increased (Total (n = 66), Grade 3-5): 0 n (%) | TEAE: Pyrexia (Total (n = 66), Grade 3-5): 0 n (%) | TEAEs (Total (n = 66), Grade 3-5): 26 (39.4) n (%) | TRAE: ALT increased (Total (n = 66), Grade 3-5): 1 (1.5) n (%) | TRAE: AST increased (Total (n = 66), Grade 3-5): 1 (1.5) n (%) | TRAE: Anemia (Total (n = 66), Grade 3-5): 0 n (%) | TRAE: Blood creatinine increased (Total (n = 66), Grade 3-5): 0 n (%) | TRAE: Constipation (Total (n = 66), Grade 3-5): 0 n (%) | TRAE: Fatigue (Total (n = 66), Grade 3-5): 1 (1.5) n (%) | TRAE: Hypoalbuminemia (Total (n = 66), Grade 3-5): 0 n (%) | TRAE: Leukocyte count increased (Total (n = 66), Grade 3-5): 0 n (%) | TRAE: Melanocytic nevus (Total (n = 66), Grade 3-5): 0 n (%) | TRAE: Neutrophil count increased (Total (n = 66), Grade 3-5): 0 n (%) | TRAE: Platelet count increased (Total (n = 66), Grade 3-5): 0 n (%) | TRAE: Pyrexia (Total (n = 66), Grade 3-5): 0 n (%) | patients who experienced grade ≥3 TRAEs (all 66 patients): 13.6% | patients who experienced treatment-related AEs (TRAEs) (all 66 patients): 93.9% | treatment-related serious AEs (all 66 patients): 7.6% | Treatment-related SAE (all patients, Population, N 68): 5 (7.4) n (%) | Treatment-related SAE: Anemia (all patients, Population, N 68): 1 (1.5) n (%) | Treatment-related SAE: Arteriosclerosis coronary artery (all patients, Population, N 68): 1 (1.5) n (%) | Treatment-related SAE: Intestinal obstruction (all patients, Population, N 68): 2 (2.9) n (%) | Treatment-related SAE: Leukemoid reaction (all patients, Population, N 68): 1 (1.5) n (%) | RP2D (based on safety data from a previous phase 1 study and randomization in Part 1): 40 mg QOD | treatment discontinuation because of AEs (in vivo): no patients discontinued treatment because of AEs
